Columns and labels:
[1] = test system: 5′-AAAAAAAGAAAAAATIT-3′ (poly AT) DNA duplex; assay: FRET DNA melting, poly AT duplex; type: binding; conditions: fragments of 15, FIG. 3; duplex not specified
Protocol: (§1) FRET DNA melting studies were undertaken on 15 and 16 using two fluorescently labelled sequences. The sequences (FIG. 1) were designed to represent poly AT and poly GC sequences.
(§2) The short duplexes used in this FRET study are relatively unstable in the duplex form with a melting temperature below 30° C. so that, in the absence of ligand, a large part of the melting occurs below the starting temperature of the experiment. However, it can be observed that 15 stabilizes the duplex form, producing increases in melting temperature with ΔTm values of […] for 5′-AAAAAAAGAAAAAATIT-3′ (FIG. 2, top panel), and ˜25° C. (FIG. 2, bottom panel).
(§3) Oligonucleotides were obtained from ATDbio (Southampton, UK) in lyophilised form. […]
(§4) The reaction mixture was comprised of 4 μL of 250 mM phosphate buffer (final concentration of 50 mM), 4 μL flourophor and 4 μL quencher molecule of the appropriate oligonucleotide for a final concentration of 0.2 μM, 4 μL 5 M sodium chloride (final concentration of 1 M NaCl), and 4 μL of distilled H2O. […] This mixture was analysed without prior annealing.
(§5) Fluorescence melting profiles were measured using a Roche LightCycler using a total reaction volume of 20 μL. […] Annealing steps and melting steps were all recorded and changes in fluorescence were measured at 520 nm. […]

[2] = test system: calf thymus DNA; conditions: cited from earlier work
[3] = test system: DS3 DNA fragment; assay: DNA footprinting, DS3 DNA fragment; type: binding; conditions: DS3 DNA sequence
Protocol: The DNA sequence selectivity profile of the molecules was investigated using a modification of the previously established DNA footprinting assay. Following an overnight incubation of the ligand-DNA complexes, the mixture was mixed with strand separation buffer containing 10 mM EDTA, 10 mM NaOH, 0.1% bromophenol blue, 80% formamide and incubated at 100° C. for 3 min. The mixture was then immediately cooled on ice and run on an 8% denaturing gel.
The preparation of the DS3 DNA fragment (FIG. 5) and the “D” DNA fragment (FIG. 6) has been previously described. Briefly, the sequence which had been cloned into the BamHI site of pUC18 was obtained by cutting with HindIII and EcoRI. Radiolabelled DNA fragments were prepared by filling in the 3′-end of the HindIII site with [α-^32P]dATP using Klenow DNA polymerase (exo-).
The radiolabelled DNA fragment was separated from the remainder of the plasmid DNA on a 6% non-denaturing polyacrylamide gel. The gel (20 cm long, 0.3 mm thick) was run at 400 V in 1×TBE running buffer for about 1-2 h, until the bromophenol blue had run most of the way down the gel. The glass plates were separated and the position of the labelled DNA fragment was established by short (1 min) exposure to an X-ray film. The relevant band was then cut from the gel and the radiolabelled DNA eluted by adding 300 μL 10 mM Tris-HCl, pH 7.5 containing 0.1 mM EDTA and gently agitating overnight at room temperature. The eluted DNA was finally precipitated with ethanol and re-suspended in a suitable volume of 10 mM Tris-HCl, pH 7.5 containing 0.1 mM EDTA buffer so as to give at least 10 counts per second/μL on a hand-held Geiger counter. […]
Footprinting reactions were performed as previously described using the DNA fragments DS3, which contains tracts of AT/GC bases; and using the “D” DNA fragments which represents a random DNA sequence. […] After gel purification, the radiolabelled DNA was dissolved in 10 mM Tris-HCl pH 7.5 containing 0.1 mM EDTA, at a concentration of about 10 c.p.s per μL as determined on a hand held Geiger counter. […]

[4] = test system: 5′-[…]-3′ (poly GC) DNA duplex; assay: FRET DNA melting, poly GC duplex; type: binding; conditions: FRET melting, FIG. 2 bottom panel (poly GC duplex)
Protocol: as §1, §2, §3, §4, §5

In the case of COc1cc2c(cc1O)N=C[C@@H]1CCCCN1C2=O [Compound 28, (S)-3-Hydroxy-2-methoxy-7,8,9,10-tetrahydrobenzo[e]-pyrido[1,2-a][1,4]diazepin-12(6aH)-one], the “DNA stabilisation (FRET denaturation)” value [1] is reported as “failed to stabilise DNA”.

For Cn1cc(N)cc1C(=O)Nc1ccc(-c2cc(C(=O)Nc3ccc(N)cc3)n(C)c2)cc1 [Compound 32, 4-Amino-N-(4-(5-((4-aminophenyl)carbamoyl)-1-methyl-1H-pyrrol-3-yl)phenyl)-1-methyl-1H-pyrrole-2-carboxamide], the “DNA stabilisation (FRET denaturation)” value [1] was “failed to stabilise DNA”.

For Cc1ccc2c(c1O)NC(O)C1CC(/C=C/C(N)=O)=CN1C2=O (centres unmarked) [anthramycin], the “thermal stabilization (ΔTm)” value [2] is given as 13.1 °C.

In the case of COc1cc2c(cc1OCCCC(=O)Nc1cc(C(=O)Nc3ccc(-c4cc(C(=O)Nc5ccc(N)cc5)n(C)c4)cc3)n(C)c1)N=C[C@@H]1CCCCN1C2=O [Compound 15, (S)—N-(4-aminophenyl)-4-(4-(4-(4-((2-methoxy-12-oxo-6a,7,8,9,10,12-hexahydrobenzo[e]pyrido[1,2-a][1,4]diazepin-3-yl)oxy)butan-amido)-1-methyl-1H-pyrrole-2-carboxamido)phenyl)-1-methyl-1H-pyrrole-2-carboxamide], the “DNA binding pattern (footprint)” value [3] is reported as “bind to tracts of DNA where a GC base is present” and the “ΔTm (increase in melting temperature)” value [4] is reported as about 25 °C.

— patent US20210371413A1, “POLYCYCLIC AMIDES AS CYTOTOXIC AGENTS” (FEMTOGENIX LIMITED, priority 2018, published 2021)
